Calls of active or inactive are those of the source. The calls are words filed in the database; no cut-off is given here.
Columns and labels:
SH-SY5Y [1] = experiment: Neuroprotection against rotenone/oligomycin-A-indced human SH-SY5Y cell death assessed as protective effect at 1 uM after 2 hrs by MTT assay; type: functional
Acetylcholinesterase [2] = target: Acetylcholinesterase (Electrophorus electricus, UniProt O42275)
Description: Inhibition of Electrophorus electricus AChE by Ellman's method

Acetylcholinesterase [3] = target: T1, Acetylcholinesterase (Bos taurus, UniProt P23795)
T1 sequence (P23795 whole entry): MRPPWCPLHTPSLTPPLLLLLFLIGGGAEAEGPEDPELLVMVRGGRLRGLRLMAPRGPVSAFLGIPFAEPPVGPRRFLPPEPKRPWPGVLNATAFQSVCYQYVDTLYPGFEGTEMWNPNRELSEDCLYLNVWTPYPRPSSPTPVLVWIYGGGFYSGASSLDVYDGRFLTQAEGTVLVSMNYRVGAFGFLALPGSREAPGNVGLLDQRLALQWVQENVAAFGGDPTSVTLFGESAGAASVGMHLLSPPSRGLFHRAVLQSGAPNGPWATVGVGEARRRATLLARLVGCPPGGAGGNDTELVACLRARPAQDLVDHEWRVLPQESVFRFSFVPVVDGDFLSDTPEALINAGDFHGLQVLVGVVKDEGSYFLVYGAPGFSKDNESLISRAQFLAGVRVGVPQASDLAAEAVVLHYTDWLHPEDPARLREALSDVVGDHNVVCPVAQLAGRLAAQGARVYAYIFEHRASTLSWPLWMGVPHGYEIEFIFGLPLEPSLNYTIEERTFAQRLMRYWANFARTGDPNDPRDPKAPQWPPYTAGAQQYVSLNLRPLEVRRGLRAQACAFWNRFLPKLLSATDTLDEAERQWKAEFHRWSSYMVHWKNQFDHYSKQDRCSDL
Description: Inhibition of bovine erythrocytes AChE by Ellman's method

Cholinesterase = Cholinesterase (Equus caballus, UniProt P81908)
Description: Inhibition of horse serum BuChE by Ellman's method

SH-SY5Y [4] = experiment: Neuroprotection against okadaic acid-induced human SH-SY5Y cell death assessed as reduction in cell death at 0.1 to 1 uM; type: functional, cell-based
SH-SY5Y [5] = experiment: Neuroprotection against okadaic acid-induced human SH-SY5Y cell death assessed as reduction in LDH release at 0.1 to 1 uM relative to control; type: functional; set-up: scale not given: the % may be the effect or the level left
SH-SY5Y [6] = experiment: Neuroprotection against okadaic acid-induced human SH-SY5Y cell death assessed as reduction in LDH release at 0.3 uM relative to control; type: functional; set-up: scale not given: the % may be the effect or the level left
[7] = target: Acetylcholinesterase (Homo sapiens) (UniProt P22303); experiment: Antagonist activity at human nAChR in human SH-SY5Y cells assessed as inhibition of acetylcholine-induced cytosolic Ca2+ signal at 0.3 to 100 uM; type: functional, cell-based
[8] = target: Acetylcholinesterase (Homo sapiens) (UniProt P22303); experiment: Antagonist activity at human nAChR in human SH-SY5Y cells assessed as inhibition of 70 mM K+ induced cytosolic Ca2+ signal at 0.3 to 100 uM; type: functional, cell-based

Sequence of Cholinesterase (P81908 whole entry): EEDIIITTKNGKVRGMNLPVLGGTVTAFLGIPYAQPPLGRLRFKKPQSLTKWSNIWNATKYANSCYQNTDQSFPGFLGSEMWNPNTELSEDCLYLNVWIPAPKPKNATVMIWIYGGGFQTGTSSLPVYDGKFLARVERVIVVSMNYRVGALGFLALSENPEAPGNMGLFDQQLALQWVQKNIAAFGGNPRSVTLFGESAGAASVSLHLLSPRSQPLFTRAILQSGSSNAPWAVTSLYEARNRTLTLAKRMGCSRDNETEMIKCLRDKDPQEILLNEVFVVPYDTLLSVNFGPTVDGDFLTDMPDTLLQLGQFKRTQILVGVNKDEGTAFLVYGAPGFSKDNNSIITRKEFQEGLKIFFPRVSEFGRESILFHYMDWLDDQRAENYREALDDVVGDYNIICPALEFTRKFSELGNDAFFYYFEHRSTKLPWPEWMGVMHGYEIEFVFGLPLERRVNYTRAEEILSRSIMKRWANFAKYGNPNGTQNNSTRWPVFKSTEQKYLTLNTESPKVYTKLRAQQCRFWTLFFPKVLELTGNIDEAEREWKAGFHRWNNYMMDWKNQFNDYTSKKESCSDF
Sequence of Acetylcholinesterase (Electrophorus electricus, UniProt O42275) (O42275 whole entry): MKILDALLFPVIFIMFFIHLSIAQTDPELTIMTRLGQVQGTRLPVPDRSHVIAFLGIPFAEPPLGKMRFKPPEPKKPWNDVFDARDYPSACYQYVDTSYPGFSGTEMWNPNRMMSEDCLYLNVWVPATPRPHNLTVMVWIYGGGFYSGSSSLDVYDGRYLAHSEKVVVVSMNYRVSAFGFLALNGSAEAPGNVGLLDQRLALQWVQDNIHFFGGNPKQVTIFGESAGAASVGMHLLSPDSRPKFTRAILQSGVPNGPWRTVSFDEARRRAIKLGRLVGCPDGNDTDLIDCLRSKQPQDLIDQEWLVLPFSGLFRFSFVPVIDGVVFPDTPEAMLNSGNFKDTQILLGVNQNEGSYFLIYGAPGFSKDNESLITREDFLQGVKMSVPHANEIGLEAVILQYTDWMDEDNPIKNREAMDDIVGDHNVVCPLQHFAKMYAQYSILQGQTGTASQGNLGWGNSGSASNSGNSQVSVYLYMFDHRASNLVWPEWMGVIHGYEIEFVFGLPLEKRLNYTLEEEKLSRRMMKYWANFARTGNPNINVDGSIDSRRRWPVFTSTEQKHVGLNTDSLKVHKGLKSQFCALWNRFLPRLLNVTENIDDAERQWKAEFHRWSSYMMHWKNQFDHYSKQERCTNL
Sequence of Acetylcholinesterase (Homo sapiens) (P22303 whole entry): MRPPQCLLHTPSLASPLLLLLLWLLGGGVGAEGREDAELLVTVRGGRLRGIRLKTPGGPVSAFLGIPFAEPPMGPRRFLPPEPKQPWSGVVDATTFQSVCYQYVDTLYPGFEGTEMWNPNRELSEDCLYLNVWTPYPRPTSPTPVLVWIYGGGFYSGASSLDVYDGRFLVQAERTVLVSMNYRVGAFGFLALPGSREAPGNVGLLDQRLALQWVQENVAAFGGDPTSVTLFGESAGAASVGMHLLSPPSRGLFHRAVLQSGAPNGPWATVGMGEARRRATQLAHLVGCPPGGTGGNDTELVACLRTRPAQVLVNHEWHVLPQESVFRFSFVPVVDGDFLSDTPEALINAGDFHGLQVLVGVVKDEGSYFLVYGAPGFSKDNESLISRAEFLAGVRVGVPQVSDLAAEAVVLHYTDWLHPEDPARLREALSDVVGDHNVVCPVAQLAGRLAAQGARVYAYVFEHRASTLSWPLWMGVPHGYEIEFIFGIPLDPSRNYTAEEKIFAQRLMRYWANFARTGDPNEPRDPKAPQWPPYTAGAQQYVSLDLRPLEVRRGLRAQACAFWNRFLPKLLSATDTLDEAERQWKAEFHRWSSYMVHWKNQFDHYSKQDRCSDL

`CN(C)c1nc2nc3c(c(N)c2c(-c2ccccc2)c1C#N)CCCC3` gave an Activity (SH-SY5Y [1]) of 3%, an IC50 (Acetylcholinesterase [2]) of 0.09 µM and an IC50 (Acetylcholinesterase [3]) of 4.4 µM. It also gave an IC50 (Cholinesterase) of 7.5 µM.

Molecule `CC(=O)N[C@@H](CS)C(=O)O` [ACETYLCYSTEINE] has an Activity (SH-SY5Y [1]) of 33%.

For `N#Cc1cc2c(N)c3c(nc2nc1Cl)CCN(Cc1ccccc1)C3`, the Activity (SH-SY5Y [1]) was 20%, the IC50 (Acetylcholinesterase [2]) was 0.35 µM and the IC50 (Acetylcholinesterase [3]) was > 100 µM. For the same molecule, the IC50 (Cholinesterase) was > 100 µM.

With `N#Cc1cc2c(N)c3c(nc2nc1Cl)CCCC3` the Activity (SH-SY5Y [1]) was 4%, the IC50 (Acetylcholinesterase [2]) was 5 µM and the IC50 (Acetylcholinesterase [3]) was > 100 µM. For the same molecule, the IC50 (Cholinesterase) was > 30 µM.

With `COc1nc2nc3c(c(N)c2cc1C#N)CCCC3` the Activity (SH-SY5Y [1]) was 23%, the Activity (SH-SY5Y [4]) was “Active” and the Activity (SH-SY5Y [5]) was 49%. The Activity (SH-SY5Y [6]) was 65%, the inhibition [7] was “inactive” and the inhibition [8] was “inactive”. The IC50 (Acetylcholinesterase [2]) was 0.06 µM, the IC50 (Acetylcholinesterase [3]) was 1.6 µM and the IC50 (Cholinesterase) was 9.6 µM.

`C#CCNc1nc2nc3c(c(N)c2cc1C#N)CCCC3` showed an Activity (SH-SY5Y [1]) of 20%, an IC50 (Acetylcholinesterase [2]) of 0.03 µM and an IC50 (Acetylcholinesterase [3]) of 1.53 µM. The IC50 (Cholinesterase) was 2.6 µM.

For `N#Cc1cc2c(N)c3c(nc2nc1N1CCCCC1)CCCC3`, the Activity (SH-SY5Y [1]) was 19%, the IC50 (Acetylcholinesterase [2]) was 0.025 µM and the IC50 (Acetylcholinesterase [3]) was 1 µM. For the same molecule, the IC50 (Cholinesterase) was 3.6 µM.

In the case of `COc1nc2nc3c(c(N)c2cc1C#N)CN(Cc1ccccc1)CC3`, the Activity (SH-SY5Y [1]) is reported as 11%, the IC50 (Acetylcholinesterase [2]) is reported as 0.35 µM and the IC50 (Acetylcholinesterase [3]) is reported as 5 µM. The IC50 (Cholinesterase) was > 100 µM.

Molecule `CN(C)c1nc2nc3c(c(N)c2cc1C#N)CCCC3` has an Activity (SH-SY5Y [1]) of 6%, an IC50 (Acetylcholinesterase [2]) of 0.014 µM and an IC50 (Acetylcholinesterase [3]) of 0.1 µM. For the same molecule, the IC50 (Cholinesterase) was 5.2 µM.

`N#Cc1c(Cl)nc2nc3c(c(N)c2c1-c1ccccc1)CCCC3` was tested, and the Activity (SH-SY5Y [1]) was 8%, the IC50 (Acetylcholinesterase [2]) was > 30 µM and the IC50 (Acetylcholinesterase [3]) was > 100 µM. For the same molecule, the IC50 (Cholinesterase) was > 30 µM.

`COc1nc2nc3c(c(N)c2c(-c2ccccc2)c1C#N)CCCC3` showed an Activity (SH-SY5Y [1]) of 12%, an IC50 (Acetylcholinesterase [2]) of 0.08 µM and an IC50 (Acetylcholinesterase [3]) of 5 µM. It also gave an IC50 (Cholinesterase) of 5.1 µM.

`CCOc1nc2nc3c(c(N)c2cc1C#N)CCCC3` showed an Activity (SH-SY5Y [1]) of 29%, an IC50 (Acetylcholinesterase [2]) of 0.05 µM and an IC50 (Acetylcholinesterase [3]) of 1 µM. The IC50 (Cholinesterase) was > 30 µM.

`N#Cc1cc2c(N)c3c(nc2nc1N1CCCC1)CCCC3` gave an Activity (SH-SY5Y [1]) of 29%, an IC50 (Acetylcholinesterase [2]) of 0.043 µM and an IC50 (Acetylcholinesterase [3]) of 0.16 µM. For the same molecule, the IC50 (Cholinesterase) was 5.6 µM.
